Data from patent publication US20070167408A1, “NOVEL ALKYL PHOSPHOLIPID DERIVATIVES WITH REDUCED CYTOTOXICITY AND USES THEREOF” (ZENTARIS GmbH, priority 2005, published 2007).
Converted amounts (≈) assume the structure as drawn.

Tests used:
Type in all cases: cell-based
[1] = system: SKOV-3 (human ovary adenocarcinoma) cells; assay: XTT cytotoxicity assay, SKOV-3 cells
Method in brief: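 Exponentially growing SKOV-3 cells recovered 24 h after plating, then received freshly diluted compounds for 2 days of continuous exposure. Viability was read by formazan formation after 3 h with XTT-PMS at 37° C., 5% CO2. IC50 came from inhibition curves.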

[2] = system: Trypanosoma cruzi (Tulahuan-LACZ amstigotes in PEM); assay: In vitro drug activity assay, protozoon A; conditions: amastigotes in murine peritoneal macrophages, 3 days
Experimental: In vitro activity of selected compounds of the invention against different protozoa was assessed as follows.
Murine (CD1) peritoneal macrophages were harvested 24 hours after starch induction and dispensed into 96-well plates at a concentration of 4×10^5 mL. After 24 hours, the cells were infected with Trypanosoma cruzi Tulahuan LAC-Z amastigotes (grown and cultured according to Buckner et al., Infection and Immunity 1999, 67(1): 403-409). 24 hours later, the infected cells were exposed to the test compounds (compounds of the invention as well as known prior art compounds) for 3 days and 50 μL of 500 μM CPRG-1% Nonidet P-40 was added to each well. The plates were read after 2 to 5 hours at 570 nm (Buckner et al., Antimicrobial Agents and Chemotherapy 1996, 40(11): 2592-2597). ED50 values were calculated with Msxlfit (IDBS).
The following protozoa were assessed: • A) Trypanosoma cruzi (Tulahuan-LACZ amstigotes in PEM, Lorente S O et al., Antimicrobial agents and chemotherapy 2004, 48(8): 2937-2950; Buckner et al., Infection and Immunity 1999, 67(1): 403-409; Buckner et al., Antimicrobial Agents and Chemotherapy 1996, 40(11): 2592-2597) • B) Trypanosoma brucei rhodesiense (strain STIB900, Lorente S O et al., Antimicrobial agents and chemotherapy 2004, 48(8): 2937-2950; Habtemariam S, BMC Pharmacology 2003, 3:6) • C) Plasmodium falciparum (strain K1, Korsinczky M et al., Antimicrobial agents and chemotherapy 2000, 44(8): 2100-2108; Thaitong S and Beale G H, Trans. R. Soc. Trop. Med. Hyg. 1981, 75: 271-273; Trager W and Jensen J B, Science 1976, 193: 673-675) • D) Plasmodium faiciparum (strain 3D7, Mu et al., PLoS Biology 2005, 3(10): e335)

[3] = system: Streptococcus pneumoniae DSM 11967 (ATCC 49619); assay: Anti-bacterial bouillon microdilution assay (MIC), bacterium B; conditions: Streptococcus pneumoniae DSM 11967, 24 h
Experimental: Selected compounds of the invention were tested in a bouillon microdilution assay method according to the DIN 58940 (www.din.de) guidelines for determination of susceptibility of bacterial strains with regard to cell growth inhibition. The assay method quantifies bacterial cell growth which corresponds to the turbidity of the liquid culture medium by photometric measurement carried out at 595 nm.
The method of MIC determination was performed according to DIN 58940-5. The volumina were adapted according to the microdilution method as described in DIN 58940-7 guideline.
Dependent on water solubility, compounds of the invention were dissolved either in water or ethanol in a concentration of 10 mg/ml. Subsequently, the stock was further diluted in water to a concentration of 512 μg/ml. The following serial dilutions (factor 2) were performed in water resulting in the following […] testing concentrations: 256 μg/ml, 128 μg/ml, 64 μg/ml, 32 μg/ml, 16 μg/ml, 8 μg/ml, 4 μg/ml, 2 μg/ml, 1 μg/ml, 0.5 μg/ml, 0.25 μg/ml and 0.125 μg/ml. Diluted compounds of the invention were transferred in 100 μl volume to the microtiter plate wells.
Pre-cultures of bacteria were grown in appropriate liquid media (refer to ATCC webpage, www.atcc.org) and afterwards were inoculated in corresponding liquid medium. 100 μl of the inoculums [adjusted to an amount of app. 1×10^6 microorganisms per ml (range of 10^5-10^8 microorganisms per ml)] were added to each of the testing compound concentrations and cultivated under the appropriate conditions.
Before and after incubation, bacterial growth was determined by photometric analysis against a positive control containing growing bacteria without compound and a sterile/negative control containing only the medium.

SMILES	SKOV-3 % INH [100 μM] ([1]; second set of experiments)	ED50 (μg/mL), protozoon A [2]	MIC, bacterium B [3]	inhibition at 100 µM ([1]; Homo sapiens, SK-OV-3, second set of experiments, read-out: SKOV-3 % INH [100 μM])	MIC [3]
CCCCCCCCCCCCCCCCOP(=O)([O-])OCC[N+]1(C)CCCCC1 [Compound 2, Phosphoric acid hexadecyl ester 2-(1-methyl-piperidin-1-yl)-ethyl ester]	19.5%	0.50 µg/mL (≈ 1.12 µM)	8 µg/mL (≈ 17.9 µM)	–	–
CCCCCCCCCCCCCCCCOP(=O)([O-])OCC[N+](C)(C)C [miltefosine, hexadecylphosphocholine, reference compound]	–	0.63 µg/mL (≈ 1.55 µM)	–	74.7%	128 µg/mL (≈ 314 µM)
